Test results published in US12350241B1, “Method for inhibiting proliferation of cancer cells” (IMAM MOHAMMAD IBN SAUD ISLAMIC UNIVERSITY, priority 2024, dated 2025).

How the values were obtained:
Experiment in all cases: growth inhibition of cancer cells (FIG. 3)
Assay type in all cases: cell-based
HEP2 cancer cells = tested on: HEP2 cancer cells
HELA cancer stem cells = tested on: HELA cancer stem cells
[1] = tested on: HCT116 colon carcinoma stem cells
[2] = tested on: MDA-MB-468 cancer stem cells
PC3 cancer stem cells = tested on: PC3 cancer stem cells
[3] = tested on: A549 lung cancer stem cells
FaDu cancer stem cells = tested on: FaDu cancer stem cells

CCCCOc1ccc(Oc2ccc(C=O)cc2)cc1 [YS2, 4-(4-butoxyphenoxy)benzaldehyde]
growth inhibition percentage (HEP2 cancer cells; HEP2 cancer cells): about 70%
performance compared to doxorubicin (DOX) (HEP2 cancer cells; HEP cell line, versus commercially available doxorubicin): comparable to or outperformed DOX
growth inhibition percentage (HELA cancer stem cells): about 80%
performance compared to doxorubicin (DOX) ([1]; HCT 116 cell line, versus commercially available doxorubicin): comparable to or outperformed DOX
growth inhibition percentage ([1]; HCT116 colon carcinoma stem cells): about 90%
growth inhibition percentage [2]: about 95%
growth inhibition percentage (PC3 cancer stem cells): about 90%
performance compared to doxorubicin (DOX) ([3]; A549 cell line, versus commercially available doxorubicin): comparable to or outperformed DOX
growth inhibition percentage ([3]; A549 lung cancer stem cells): about 90%
growth inhibition percentage (FaDu cancer stem cells): about 90%
